Assay results published in US6727227B1, “Tetrapetide revealing geroprotective effect, pharmacological substance on its basis, and the method of its application” (Obschestvo S Ogranichennoi Otvetstven-Nostiju “Klinika …, priority 2002, dated 2004).
Marks after values point to notes of the source that are not given here. Residues, ends and D or L forms follow the SMILES beside them.

What was measured:
catalase [1] = assay: Catalase activity in homogenates of 14 days old flies of LA strain; format: in vivo, Drosophila melanogaster of LA strain
Procedure: (§1) The impact produced by L-Ala-L-Glu-L-Asp-Gly tetrapeptide (SEQ ID NO: 1) on catalase activity, the content of the products of lipid peroxide oxidation (LPO), life span, and the ageing rate were studied in Drosophila melanogaster of LA strain.
(§2) L-Ala-L-Glu-L-Asp-Gly tetrapeptide (SEQ ID NO: 1) was applied in the larvae of the 3rd age in dose 0.00001% of the culture medium weight, which constituted approximately 0.015 mg/100 ml. Catalase activity was estimated by generally accepted methods in the homogenates of adult 14 days old flies. The experiment was carried out with a subsequent repetition.
(§3) Regression and dispersal analyses served as the basic technique of statistic processing. The authenticity of differences was confirmed by the method of minimal relevant diversity.

catalase [2] = assay: Catalase activity in 14-day old flies of HEM strain; format: in vivo, Drosophila melanogaster of HEM strain; conditions: 0.00001% of culture medium weight
Text: (§4) L-Ala-L-Glu-L-Asp-Gly tetrapeptide (SEQ ID NO: 1) was applied in Drosophila melanogaster larvae of the 2nd age of HEM strain selected for a high ageing rate (20). HEM strain is characterised by the unique dynamics of embryonic mortality, which consists in an increased frequency of early embryonic lethal outcomes from 65% on the 1st day of egg-laying up to 95% on the 4th day, in a reduced average life span (29 days), and in a raised intensity of lipid peroxide oxidation.
(§5) L-Ala-L-Glu-L-Asp-Gly tetrapeptide (SEQ ID NO: 1) was added in proportion 0.00001% of the culture medium weight, which was an extremely low dose. The doses described in literature on the influence of various substances on Drosophila melanogaster usually ranged from 0.001 to 0.01%.
Biochemical parameters were studied on 14-day old flies. Among them the activity of catalase activity and the intensity of tissue chemoluminescence were analysed (21, 22, 23). Catalase is the basic enzyme of anti-oxidation defence. […] Luminol-dependent chemoluminescence, induced by hydrogen peroxide, reflects the stage of active oxygen forms in tissues. Thus, a decrease in the chemoluminescence intensity indicates an increase in the organism ability to resist oxidative stress.

white outbred rats = assay: Subacute toxicity, 90 days; format: in vivo; conditions: intramuscularly daily for 90 days, 1 μg/kg, 0.3 mg/kg, 3 mg/kg
Procedure: Experimental animals were exposed daily to a single administration of the drug intramuscularly for 90 days in doses 1 μg/kg, 0.3 mg/kg, 3 mg/kg in 0.5 ml of sodium chloride solution. Animals of the control group were administered with the same amount of sodium chloride.
Within the whole period of study the animals were under daily observation. Behaviour of the animals, their rations and water consumption, the state of hair integument and mucous membranes were registered. The animals were weighed weekly. Prior to and on the 30th, 60th, and 90th days of the drug administration the morphological composition and properties of the peripheral blood were examined. Upon the experiment completion biochemical and coagulologic indices of blood were investigated.

[3] = system: Drosophila melanogaster of LA strain; assay: Life span and ageing rate, LA strain; format: in vivo; conditions: for ALS / Me / LSmax (maximal life span): 0.00001% of medium weight; for LSmax (maximal life span): in days
Text: as §1
(§6) One-day old flies were placed in test tubes, 10 individuals of the same sex in each. Every 2 days they were transferred to a fresh medium taking into consideration the number of deceased individuals. The average and maximal life spans were defined. The ageing rate was calculated by the parameters of Gomperz equation.
as §2, §3

catalase [4] = assay: Catalase activity in homogenates of 7-day old flies of EA strain; format: in vivo, Drosophila melanogaster of EA strain
Procedure: (§7) Drosophila melanogaster of EA strain served as a model for studying the influence of L-Ala-L-Glu-L-Asp-Gly tetrapeptide (SEQ ID NO: 1) on catalase activity, tissue chemoluminescence, and life span.
(§8) L-Ala-L-Glu-L-Asp-Gly tetrapeptide (SEQ ID NO: 1) was applied in the larvae of the 3rd age in dose 0.00001% of the culture medium weight, which constituted approximately 0.015 mg/100 ml. Catalase activity and the intensity of chemoluminescence were estimated in the homogenates of adult 7-day old flies by generally accepted methods. The experiment was conducted with a subsequent 5 repetition.
(§9) Regression and dispersal analyses served as the basic technique of statistic processing.

[5] = system: Drosophila melanogaster of EA strain; assay: Chemoluminescence intensity in homogenates of 7-day old flies of EA strain; format: in vivo
Procedure: as §7, §8, §9

[6] = system: Drosophila melanogaster of EA strain; assay: Life span and ageing rate, EA strain; format: in vivo
Procedure: as §7
as §6, with “5 to 7” for “2”, “medium,” for “medium”, “account” for “consideration”
as §8, §9

[7] = system: Drosophila melanogaster of HEM strain; assay: Life span and ageing rate, HEM strain; format: in vivo; conditions: for 90% (the age, which 90% of the individuals reach) / ALS (average life span) / MRDT (mortality-rate doubling time) / Me (median life span) / R · 10^−2 (parameter of Gomperz equation): 0.00001% of medium
Text: as §4, §5

SMILES: C[C@H](N)C(=O)N[C@@H](CCC(=O)O)C(=O)N[C@@H](CC(=O)O)C(=O)NCC(=O)O [L-Ala-L-Glu-L-Asp-Gly tetrapeptide, L-alanyl-L-glutamyl-L-aspartyl-glycine] (H-AEDG-OH)
- Specific activity of catalase (catalase [1]; females): 42.57 μmole H2O2/mg of protein per min.
- Specific activity of catalase (catalase [1]; males): 57.44* μmole H2O2/mg of protein per min.
- Catalase activity (catalase [2]; females): 98.8 ± 1.62 mmole H2O2/mg of protein per min.
- Catalase activity (catalase [2]; males): 132.3 ± 3.68 mmole H2O2/mg of protein per min.
- Side effects, subacute toxicity (white outbred rats): absence of side effects
- LSmax without taking into consideration intersexual distinctions ([3]; both sexes): notably extended
- G 10^2 (parameter of Gomperz equation) ([3]; females): 4.3 ± 0.90 days^−1
- LnR0 (parameter of Gomperz equation) ([3]; females): -3.806 ± 0.2580 day⁻¹
- MRDT ([3]; females): 3.8
- Type of geroprotector (survival rate curves and Gomperz charts) ([3]; females): geroprotector of the 1st type
- ALS ([3]; females): 20 ± 1.3 days
- Me ([3]; females): 17 days
- LSmax (maximal life span) ([3]; females): 44 ± 1.9
- G 10^2 (parameter of Gomperz equation) ([3]; males): 10.9 ± 3.45 days^−1
- LnR0 (parameter of Gomperz equation) ([3]; males): −5.496 ± 0.711 days^1
- MRDT ([3]; males): 2.9
- Type of geroprotector (survival rate curves and Gomperz charts) ([3]; males): geroprotector of the 3rd type
- ALS ([3]; males): 24 ± 0.96 days
- Me ([3]; males): 28.5 days
- LSmax (maximal life span) ([3]; males): 33 ± 0.9
- Specific activity of catalase (catalase [4]; females): 82.78 ± 2.957 μmole H2O2/mg of protein per min.
- Specific activity of catalase (catalase [4]; males): 100.39 ± 3.807 μmole H2O2/mg of protein per min.
- Chemoluminescence intensity ([5]; females): 4.61 ± 0.395 conv. unit/mg of protein per p
- Chemoluminescence intensity ([5]; males): 4.93 ± 0.109 conv. unit/mg of protein per p
- ALS ([6]; females, Experiment 1): 16.4 ± 1.68 days
- G 10^2 ([6]; females, Experiment 1): 3.6 ± 0.61* days^−1
- LSmax ([6]; females, Experiment 1): 39 days
- LnR0 ([6]; females, Experiment 1): -3.1 ± 0.21 day⁻¹
- ALS ([6]; females, Experiment 2): 16.7 ± 0.70 days
- G 10^2 ([6]; females, Experiment 2): 4.2 ± 1.68 days^−1
- LSmax ([6]; females, Experiment 2): 41 days
- LnR0 (Gompertz parameter) ([6]; females, Experiment 2): -3.6 ± 0.41 day⁻¹
- ALS ([6]; males, Experiment 1): 10.8 ± 1.09 days
- G 10^2 ([6]; males, Experiment 1): 3.3 ± 2.25 days^−1
- LSmax ([6]; males, Experiment 1): 39 days
- LnR0 (Gompertz parameter) ([6]; males, Experiment 1): -2.3 ± 0.26 day⁻¹
- ALS ([6]; males, Experiment 2): 17.4 ± 0.88 days
- G 10^2 ([6]; males, Experiment 2): 4.7 ± 0.94* days^−1
- LSmax ([6]; males, Experiment 2): 45 days
- LnR0 (Gompertz parameter) ([6]; males, Experiment 2): -3.0 ± 0.28 day⁻¹
- 90% (the age, which 90% of the individuals reach) ([7]; females): 76 days
- ALS (average life span) ([7]; females): 48 + days
- MRDT (mortality-rate doubling time) ([7]; females): 3.9
- Me (median life span) ([7]; females): 48.0 days
- R · 10^−2 (parameter of Gomperz equation) ([7]; females): 4.0 + days^−1
- 90% (the age, which 90% of the individuals reach) ([7]; males): 62 days
- ALS (average life span) ([7]; males): 42 + 1.3 days
- MRDT (mortality-rate doubling time) ([7]; males): 3.8
- Me (median life span) ([7]; males): 38.0 days
- R · 10^−2 (parameter of Gomperz equation) ([7]; males): 4.5 + days^−1
- Increase of the average life span ([7]; versus control): 26%
- Reduction of the population real ageing rate (Gomperz parameter) ([7]; versus control): 40%
